Ends that are not written are not given here.
Experiments:
[1] = test system: TTSS-mediated lysis of sheep RBC by EPEC E2348/69; conditions: for inhibition of TTSS-mediated RBC lysis caused by E2348/69: peptide 0.56 mg/ml, bacteria preincubated with peptide 1 h, then 5% sheep RBC 3 h at 37°C, released hemoglobin OD 543 nm, relative to EPEC alone (100%), triplicate
Method: Twelve-well plates containing peptides and bacteria were incubated for 1 h to allow their interaction. A 5% suspension of RBC was then added, plates were incubated for another 3 h, and supernatants were monitored for released hemoglobin.
K12 means the hemolysis caused by the E. coli non-pathogenic strain. […] Each assay was done by triplicate.
The plates were incubated for 1 h under a 5% CO2 atmosphere to allow the interaction between peptides and bacteria. In turn, red blood cells (RBCs) were separated by centrifugation from fresh defibrinated sheep blood, which was obtained by jugular vein punction, washed three times with 10 mM PBS (pH 7.4) and resuspended at 5% in PBS. Then, 2 ml of the 5% suspension of RBC in PBS was added to the cultures in the plates and incubated for 3 h at 37°C under a 5% CO2 atmosphere. The suspension was removed from the plates and centrifuged at 12,000×g for 1 min. Supernatants were monitored for the presence of released hemoglobin by measuring the OD at 543 nm.

[2] = test system: EPEC E2348/69 adhering to HEp-2 cells; experiment: Fluorescent actin staining (FAS), A/E lesion / pedestal formation in HEp-2 cells; type: cell-based, enteropathogenic E. coli (EPEC) E2348/69; conditions: peptide 0.56 mg/ml preincubated 1 h with EPEC, MOI 7, 2 h infection, 100 cells examined; EPEC without peptides 80%
From the text: Since CoilA, CoilB and CoilD were able to inhibit the hemolysis caused by EPEC, which could involve translocator proteins at cell membrane level, we decided to explore whether peptides were also able to block effector proteins delivery and thus prevent the formation of A/E lesions in epithelial cells. Thus, peptides interfering in actin polymerization beneath E2348/69 strain adhering to HEp-2 cells were visualized by FAS (fluorescent actin staining). As expected, EPEC bacteria were able to induce actin polymerization for pedestal formation in almost all the cells (Fig. 2A), the A/E lesions were not seen in uninfected cells (Fig. 2B). CoilA or CoilB preincubation with EPEC caused a decrease in pedestal formation in epithelial cells, showing different effectiveness (Fig. 2C and Fig. 2D).
Figure 2 Coiled-coil peptides inhibit A/E lesion formation caused by EPEC. HEp-2 cells were incubated with EPEC E2348/69 either with or without coiled-coil peptides. […] Incubation of HEp-2 cells with the wild type EPEC E2348/69 strain without peptides (EPEC WT); preincubated with CoilA (EPEC+CoilA), or CoilB (EPEC+CoilB) peptide and uninfected cells. The corresponding percentage of HEp-2 cells carrying pedestals, obtained by examining 100 cells, is shown in panel E. EPEC pH represents a mock control to rule out the biological influence of alkaline pH used to dissolve peptides; PBS at alkaline pH was used in volumes identical to those in which peptides were added to HEp-2 cells.
HEp-2 cells (5×10^4) were seeded in eight well chamber slides (NUNC, Lab-Tek, USA) and incubated at 37°C under a 5% CO2 atmosphere up to 70–90% confluence. Overnight LB culture of the EPEC E2348/69 strain was diluted 1∶20 into 3 ml of DMEM and cultured for 1 h. CoilA, CoilB or CoilD peptides were then added to the culture at a concentration of 0.56 mg/ml and allowed to interact with the bacteria for 1 h at 37°C under a 5% CO2 atmosphere. […] The cells were observed under fluorescence microscopy with a confocal laser microscope (Leica TC SP2).

[3] = test system: EspA and Tir associated to HEp-2 cells infected with EPEC E2348/69; experiment: Western blot of EPEC-secreted proteins associated to HEp-2 cells; type: cell-based, enteropathogenic E. coli (EPEC) E2348/69; conditions: HEp-2 cells treated 2 h with EPEC preincubated with peptide, washed, lysed
Method: To further determine the effect of CoilA and CoilB on EspA polymerization and Tir translocation were also examined by Western blotting. For that, HEp-2 cells were treated for 2 h with either EPEC alone or preincubated with each of the peptides and exhaustively washed. Cell extracts were prepared and the contents of EspA and Tir (Fig. 4) analyzed by Western blot using specific antibodies. […] The effective amount of EspA and Tir associated per cell may be even higher in non-treated (without peptides) cell cultures because it could be underestimated as some HEp-2 cells are detached from the surface upon infection. The pH buffering solution used to dilute CoilA and CoilB peptides had no effect and the results were similar to the positive control (Fig. 4).
Figure 4 CoilA and CoilB peptides block EspA polymerization and Tir translocation. Cell monolayers were infected with bacteria pretreated with peptides, washed, and lysed for Western blot detection of EspA and Tir proteins with specific rabbit antisera. pH represents a mock control to rule out the biological influence of alkaline pH used to dissolve peptides; PBS at alkaline pH was used in a volume identical to those in which peptides were added to HEp-2 cells.
(§1) HEp-2 monolayers were inoculated with bacteria pretreated with CoilA or CoilB peptides as described for fluorescent actin staining. After infection, the supernatant was removed from the plates and serial dilutions were cultured overnight at 37°C on LB agar plates to determine the viability of bacteria. In turn, the monolayers were resuspended in 40 µl of lysis buffer (1% Triton X-100) and protease inhibitor mix (Complete™ protease inhibitors, Roche). This material was subjected to Western blotting as mentioned above.

[4] = Solubilization of peptides in PBS pH 10.0 / precipitation; type: physicochemical
Method: CoilA, CoilB, CoilC, CoilD and PepTir peptides were synthesized commercially (Genbiotech, Buenos Aires). Peptides were solubilized with PBS (pH 10.0). […] EPEC E2348/69 [42] was kindly provided by Marta Rivas, ANLIS-Instituto Nacional de Microbiología Dr. Carlos G. Malbrán, Buenos Aires. […] Bacteria were grown in Luria Bertani broth (LB) or Dulbecco's modified Eagle medium (DMEM) lacking phenol red (Gibco-BRL), without antibiotics and bovine fetal serum at 37°C without shaking.

[5] = test system: EPEC adherence to HEp-2 cells; experiment: Non-adherent bacteria in supernatant of infected HEp-2 cells, HEp-2 detaching; type: cell-based, enteropathogenic E. coli (EPEC) E2348/69; conditions: data not shown; for non-adherent bacteria in the supernatant of HEp-2 cells vs EPEC without peptides: EPEC preincubated with peptide; for HEp-2 detaching activity (cytopathic effect) by EPEC: bacteria preincubated with peptide
Method: (§2) For that, HEp-2 cells were treated with EPEC preincubated either with or without CoilA or CoilB, and EspA and Tir were then visualized using specific antibodies and confocal microscopy.
as §1

[6] = test system: EspA, EspB, EspD and Tir secretion by EPEC E2348/69; experiment: In vitro TTSS protein secretion, Western blot of culture supernatants and bacterial lysates; type: cell-based, enteropathogenic E. coli (EPEC) E2348/69; conditions: EPEC incubated 4 h in DMEM with peptide 0.56 mg/ml; for secretion of EspD, Western blot: protein detected in pellet of lysed bacteria
Method: EPEC E2348/69 bacterial cultures were incubated in the presence of CoilA or CoilB peptides and concentrated supernatants and bacterial extracts were analyzed by Western blotting using specific antisera directed to EspA, EspB, EspD or Tir. The same amount of cell monolayer was loaded in each lane. pH represents a mock control to rule out the biological influence of alkaline pH used to dissolve peptides. PBS at alkaline pH was used in volumes identical to those in which peptides were added to cultures.
In order to determine the effect of syntethic peptides in the production and excretion of TTSS-proteins by EPEC, cellular and supernatants culture extracts of peptide-treated bacteria were subjected to western blot analysis with specific antisera. The E2348/69 strain grown overnight at 37°C in LB was diluted 1∶100 into 2 ml of DMEM containing CoilA or CoilB peptides at a concentration of 0.56 mg/ml, respectively, and cultured for another 4 h in the presence of 5% CO2. After collecting by centrifugation, bacteria were suspended in 2X SDS sample buffer and boiled for 5 min. The proteins present in culture supernatants were precipitated by the addition of trichloroacetic acid at 20% (wt/vol) and incubated overnight at 4°C. The protein precipitates were then collected by centrifugation at 20,000×g for 25 min, washed twice with 200 µl of ice-cold acetone and resuspended in 20 µl Tris-HCl 10 mM pH 8.8. Whole-cell extracts and culture supernatants were then analyzed by Western blotting using polyclonal rabbit antibodies against EspA, EspB, EspD and Tir recombinant proteins as described by Vilte et al. Primary antibodies were detected with horseradish peroxidase-conjugated goat anti-rabbit IgG (Sigma Chemical Co., St. Louis, MO) diluted 1∶10,000.

[7] = test system: EspA polymerization and Tir translocation by EPEC E2348/69; experiment: Immunofluorescence of EspA and Tir on infected HEp-2 cells (confocal microscopy); type: cell-based, enteropathogenic E. coli (EPEC) E2348/69; conditions: bacteria preincubated with peptide 0.56 mg/ml
Method: as §2

[8] = test system: EspA filaments on EPEC E2348/69; experiment: Immunogold labeling and TEM of EspA filaments; type: cell-based, enteropathogenic E. coli (EPEC) E2348/69; conditions: EPEC incubated 4 h with peptide 0.56 mg/ml, fifty filaments, average with standard deviation, EPEC alone 700±150 nm
Method: Since coil peptides are able to inhibit the TTSS by blocking EspA polymerization, we expected a decrement in EspA filaments on the bacterial cell surface upon incubation with coil peptides.
Figure 6 CoilA peptide blocks the formation of EspA filaments. Immunogold EM of EspA filaments on EPEC cultures incubated either with or without CoilA peptide. After incubation of bacterial samples with specific rabbit anti-EspA serum, the samples were observed by TEM. EPEC alone, without peptides (A, C) and EPEC incubated with CoilA (B, D). Bars, 200 nm (A, B), or 100 nm (C, D). Yellow box frames show EspA filaments.
EPEC E2348/69 strain was grown in LB overnight at 37°C without shaking and diluted 1∶100 into DMEM with 0.56 mg/ml of either CoilA or CoilB, in 24-well plates. The plates were incubated for 4 h under a 5% CO2 atmosphere. A 50 µl droplet of bacterial culture was applied to nickel EM grids (mesh 200) coated with 0.25% Formvar resin (Structure Probe, Inc., SPI supplies, PA, USA) for 2 min. Cells were immediately fixed face down for 15 min with 0.1% buffered glutaraldehyde in PBS (pH 7.3). The grids were washed by transfer across 6 drops of PBS and blocked in PBS containing 0.2% bovine serum albumin for 30 min at room temperature. […] Fifty EspA filaments were identified and the size was measured the length is given as an average with a standard deviation.

Sequence | inhibition of TTSS-mediated RBC lysis caused by E2348/69 [1] | HEp-2 cells showing pedestals [2] | Tir in the cells, Western blot [3] | amount of EspA associated to the cells and attached bacteria (incl. EspA polymers), Western blot [3] | tendency to precipitate / aggregation ([4]; observed in preparation for electron micrographs) | solubility in PBS (pH 10.0) ([4]; peptides solubilized with PBS pH 10.0) | non-adherent bacteria in the supernatant of HEp-2 cells vs EPEC without peptides [5] [fold] | HEp-2 detaching activity (cytopathic effect) by EPEC [5] | secretion of EspB to the culture supernatant, Western blot [6] | secretion of Tir in vitro, Western blot [6] | secretion of EspD, Western blot [6] | hemolysis at reduced peptide concentration ([1]; peptide 0.15 mg/ml, preincubated with EPEC E2348/69, sheep RBC, relative to EPEC alone) [%] | secreted EspA (immunofluorescence) ([7]; anti-EspA sera) | translocated Tir (immunofluorescence) ([7]; anti-Tir sera) | EspA filament length [8]
VNDPEKMLELQFAVQ [CoilD] | 25% | unable to inhibit pedestal formation | – | – | – | – | – | – | – | – | – | – | – | – | –
MSNTLNLLTSARSDM [CoilB] | around 95% | 2% | significant decrease | drastically decreased | tendency to precipitate forming clumps | not completely soluble | 40 | absent | blocked the secretion of EspB | lightly decreased | affected | – | – | – | –
KVNIDENGNAI [PepTir] | did not show inhibitory activity | – | – | – | – | – | – | – | – | – | – | – | – | – | –
LTTTVNNSQLEIQQM [CoilA] | around 95% | 20% | significant decrease | drastically decreased | – | – | 7 | absent | not clearly observed | lightly decreased | affected | 50 | drastic decrease | drastic decrease | about 250±50 nm
LSDSVPELLNSTDLV [CoilC] | did not show inhibitory activity | – | – | – | – | – | – | – | – | – | – | – | – | – | –

From publication PMC2816223, “Designed Coiled-Coil Peptides Inhibit the Type Three Secretion System of Enteropathogenic Escherichia coli” (PLoS ONE, 2010)
